Measured values: patent publication US20260102501A1, “ANTI-CANCER NUCLEAR HORMONE RECEPTOR-TARGETING COMPOUNDS” (Nuvation Bio Inc., priority 2022, published 2026)

Legend:
[1] = biological target: T1, Progesterone PR-B receptors from human breast carcinoma T47D cells (Homo sapiens, UniProt P06401); test: PR binding assay ([3H] Progesterone displacement)
T1 sequence (P06401 1-933): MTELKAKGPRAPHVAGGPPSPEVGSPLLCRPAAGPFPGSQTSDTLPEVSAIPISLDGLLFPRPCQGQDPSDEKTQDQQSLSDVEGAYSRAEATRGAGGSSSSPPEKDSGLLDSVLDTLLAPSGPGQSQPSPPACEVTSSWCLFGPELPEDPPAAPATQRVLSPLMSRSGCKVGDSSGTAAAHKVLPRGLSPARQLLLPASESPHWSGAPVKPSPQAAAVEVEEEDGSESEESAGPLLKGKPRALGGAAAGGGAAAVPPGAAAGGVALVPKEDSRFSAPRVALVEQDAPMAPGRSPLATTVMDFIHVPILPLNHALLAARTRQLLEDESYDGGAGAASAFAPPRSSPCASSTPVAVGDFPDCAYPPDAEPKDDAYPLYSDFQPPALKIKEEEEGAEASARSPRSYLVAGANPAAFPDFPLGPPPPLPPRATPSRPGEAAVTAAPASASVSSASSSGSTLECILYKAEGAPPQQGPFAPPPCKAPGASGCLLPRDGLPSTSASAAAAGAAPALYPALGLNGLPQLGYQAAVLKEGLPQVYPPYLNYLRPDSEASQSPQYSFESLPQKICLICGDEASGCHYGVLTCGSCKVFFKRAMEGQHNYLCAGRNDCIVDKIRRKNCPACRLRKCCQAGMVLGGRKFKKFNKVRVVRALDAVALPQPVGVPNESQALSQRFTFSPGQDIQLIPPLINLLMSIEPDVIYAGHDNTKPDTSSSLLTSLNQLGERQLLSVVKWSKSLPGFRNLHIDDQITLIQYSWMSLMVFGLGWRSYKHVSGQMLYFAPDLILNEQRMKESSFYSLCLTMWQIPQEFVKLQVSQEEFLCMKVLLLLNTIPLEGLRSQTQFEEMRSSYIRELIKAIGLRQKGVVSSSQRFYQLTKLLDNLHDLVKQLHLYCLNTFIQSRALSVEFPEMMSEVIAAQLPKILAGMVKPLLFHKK

[2] = biological target: T2, Progesterone Receptor (PR)-LBD and coactivator peptide (Homo sapiens, UniProt P06401); test: PR coactivator antagonist assay; details: 2.5 nM PR-LBD, 10 nM progesterone-induced fluorescence response
T2 sequence (P06401 679-913 limits assumed): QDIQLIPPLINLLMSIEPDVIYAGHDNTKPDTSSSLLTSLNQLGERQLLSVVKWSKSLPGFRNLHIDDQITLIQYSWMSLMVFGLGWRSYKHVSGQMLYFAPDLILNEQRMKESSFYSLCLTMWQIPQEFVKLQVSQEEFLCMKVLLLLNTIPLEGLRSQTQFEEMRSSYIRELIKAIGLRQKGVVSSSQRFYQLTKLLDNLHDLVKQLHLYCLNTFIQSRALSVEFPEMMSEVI

LNCap cells = test: Cell viability assay (CellTiterGlo); format: cell-based; details: Homo sapiens, 144 h, read-out: LNCap (IC50, nM)
IEC6 cells = test: Cell viability assay (CellTiterGlo); details: Rattus norvegicus, IEC-6, 144 h, read-out: IEC-6 (IC50, nM)
[3] = biological target: T3, ligand binding domain of the glucocorticoid receptor (HEK293 cells stably expressing) (Homo sapiens, UniProt P04150); test: GR antagonism assay (luciferase reporter)
T3 sequence (P04150 524-758 limits assumed): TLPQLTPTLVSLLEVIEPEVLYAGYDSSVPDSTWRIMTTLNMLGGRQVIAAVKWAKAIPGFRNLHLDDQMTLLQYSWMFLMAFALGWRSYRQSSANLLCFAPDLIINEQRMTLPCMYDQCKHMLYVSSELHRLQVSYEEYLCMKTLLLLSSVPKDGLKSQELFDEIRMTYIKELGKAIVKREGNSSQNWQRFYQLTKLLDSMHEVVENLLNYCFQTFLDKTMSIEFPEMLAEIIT

[4] = biological target: T4, GR (cytosol from IM-9 cells) (Homo sapiens, UniProt P04150); test: GR binding assay (3H-Dexamethasone displacement)
T4 sequence (P04150 1-777): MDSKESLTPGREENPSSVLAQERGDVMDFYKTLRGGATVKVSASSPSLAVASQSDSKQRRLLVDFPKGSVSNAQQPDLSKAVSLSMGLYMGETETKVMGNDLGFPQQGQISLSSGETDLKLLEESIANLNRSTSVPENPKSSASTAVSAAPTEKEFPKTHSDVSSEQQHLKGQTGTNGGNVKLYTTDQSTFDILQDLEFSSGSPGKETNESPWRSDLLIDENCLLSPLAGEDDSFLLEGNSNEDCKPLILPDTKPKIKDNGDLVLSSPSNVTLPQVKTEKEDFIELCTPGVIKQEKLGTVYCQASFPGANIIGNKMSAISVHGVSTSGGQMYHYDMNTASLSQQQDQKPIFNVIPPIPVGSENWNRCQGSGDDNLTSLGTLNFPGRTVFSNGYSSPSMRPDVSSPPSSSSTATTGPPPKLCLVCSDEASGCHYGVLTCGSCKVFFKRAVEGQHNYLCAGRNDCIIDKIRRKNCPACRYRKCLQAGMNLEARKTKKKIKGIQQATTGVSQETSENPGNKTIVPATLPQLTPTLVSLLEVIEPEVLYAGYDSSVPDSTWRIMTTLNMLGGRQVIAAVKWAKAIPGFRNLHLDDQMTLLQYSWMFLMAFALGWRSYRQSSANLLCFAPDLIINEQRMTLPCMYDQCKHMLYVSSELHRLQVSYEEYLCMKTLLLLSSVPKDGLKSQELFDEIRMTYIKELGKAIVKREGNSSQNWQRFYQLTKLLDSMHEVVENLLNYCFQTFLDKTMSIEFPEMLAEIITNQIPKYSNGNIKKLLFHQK

T47D cells = test: Cell viability assay (CellTiterGlo); format: cell-based; details: Homo sapiens, 144 h, read-out: T47D (IC50, nM)
[5] = biological target: T5, AR (cytosol from LnCaP cells) (Homo sapiens, UniProt P10275, T878A); test: AR binding assay (3H-R1881 displacement)
T5 sequence (P10275 1-920 T878A): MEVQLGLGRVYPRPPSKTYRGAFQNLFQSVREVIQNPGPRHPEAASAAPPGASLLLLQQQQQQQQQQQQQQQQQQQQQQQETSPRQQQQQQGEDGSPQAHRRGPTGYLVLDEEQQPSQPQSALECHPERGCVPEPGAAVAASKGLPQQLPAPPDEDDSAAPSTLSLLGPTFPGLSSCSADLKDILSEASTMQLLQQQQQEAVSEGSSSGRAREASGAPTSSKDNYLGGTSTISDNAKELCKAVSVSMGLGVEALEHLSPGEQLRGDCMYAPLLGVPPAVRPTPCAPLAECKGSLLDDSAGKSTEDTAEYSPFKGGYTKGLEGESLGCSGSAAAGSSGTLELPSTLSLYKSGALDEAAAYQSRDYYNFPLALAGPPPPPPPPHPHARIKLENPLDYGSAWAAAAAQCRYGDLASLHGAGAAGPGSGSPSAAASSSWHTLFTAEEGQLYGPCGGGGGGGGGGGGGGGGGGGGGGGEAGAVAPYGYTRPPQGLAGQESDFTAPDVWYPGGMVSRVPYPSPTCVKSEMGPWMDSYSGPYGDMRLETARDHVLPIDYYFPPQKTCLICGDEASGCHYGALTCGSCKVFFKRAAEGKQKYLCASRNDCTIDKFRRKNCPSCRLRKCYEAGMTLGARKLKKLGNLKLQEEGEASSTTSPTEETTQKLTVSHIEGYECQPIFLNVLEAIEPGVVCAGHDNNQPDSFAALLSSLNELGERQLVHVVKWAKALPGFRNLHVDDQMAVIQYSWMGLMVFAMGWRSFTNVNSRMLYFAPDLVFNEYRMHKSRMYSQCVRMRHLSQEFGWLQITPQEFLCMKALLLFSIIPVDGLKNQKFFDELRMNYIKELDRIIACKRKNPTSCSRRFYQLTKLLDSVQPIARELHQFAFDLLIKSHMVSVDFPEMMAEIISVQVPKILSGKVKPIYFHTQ
Method: The plate was then centrifuged at 3000 rpm for 30 minutes at 4° C.

| SMILES | IC50 [1] [µM] | PR antagonism [2] | IC50 (LNCap cells) [nM] | IC50 (IEC6 cells) [nM] | IC50 [3] [µM] | IC50 [4] [µM] | IC50 (T47D cells) [nM] | IC50 [5] [µM] |
| --- | --- | --- | --- | --- | --- | --- | --- | --- |
| CC[C@@]1(O)C(=O)OCc2c1cc1n(c2=O)Cc2cc3c(CN(C)C)c(OC(=O)N4C5CC4CN(CCCCCCN(C)c4ccc([C@H]6C[C@@]7(C)[C@@H](CC[C@]7(OC(C)=O)C(C)=O)[C@@H]7CCC8=CC(=O)CCC8=C76)cc4)C5)ccc3nc2-1 [Compound 3, (S)-10-((Dimethylamino)methyl)-4-ethyl-4-hydroxy-3,14-dioxo-3,4,12,14-tetrahydro-1H-pyrano[3′,4′:6,7]indolizino[1,2-b]quinolin-9-yl 3-(6-((4-((8S,11R,13S,14S,17R)-17-acetoxy-17-acetyl-13-methyl-3-oxo-2,3,6,7,8,11,12,13,14,15,16,17-dodecahydro-1H-cyclopenta[a]phenanthren-11-yl)phenyl)(methyl)amino)hexyl)-3,6-diazabicyclo[3.1.1]heptane-6-carboxylate] | < 0.01 | a (IC50 =< 10 nM) | 101 to 1000 | > 1000 | 0.01 to 0.1 | < 0.01 | 10 to 100 | 0.01 to 0.1 |
| CC[C@@]1(O)C(=O)OCc2c1cc1n(c2=O)Cc2cc3c(CN4CCN(C)CC4)c(OC(=O)N4CCN(CCCCCCN(C)c5ccc([C@H]6C[C@@]7(C)[C@@H](CC[C@]7(OC(C)=O)C(C)=O)[C@@H]7CCC8=CC(=O)CCC8=C76)cc5)CC4)ccc3nc2-1 [Compound 5, (S)-4-Ethyl-4-hydroxy-10-((4-methylpiperazin-1-yl)methyl)-3,14-dioxo-3,4,12,14-tetrahydro-1H-pyrano[3′,4′:6,7]indolizino[1,2-b]quinolin-9-yl 4-(6-((4-((8S,11R,13S,14S,17R)-17-acetoxy-17-acetyl-13-methyl-3-oxo-2,3,6,7,8,11,12,13,14,15,16,17-dodecahydro-1H-cyclopenta[a]phenanthren-11-yl)phenyl)(methyl)amino)hexyl)piperazine-1-carboxylate] | < 0.01 | a (IC50 =< 10 nM) | 101 to 1000 | > 1000 | 0.01 to 0.1 | < 0.01 | 101 to 1000 | 0.01 to 0.1 |
| CC[C@@]1(O)C(=O)OCc2c1cc1n(c2=O)Cc2cc3c(CN(C)C)c(OC(=O)N4CCN(CCCCCCCN(C)c5ccc([C@H]6C[C@@]7(C)[C@@H](CC[C@]7(OC(C)=O)C(C)=O)[C@@H]7CCC8=CC(=O)CCC8=C76)cc5)CC4)ccc3nc2-1 [Compound 6, (S)-10-((Dimethylamino)methyl)-4-ethyl-4-hydroxy-3,14-dioxo-3,4,12,14-tetrahydro-1H-pyrano[3′,4′:6,7]indolizino[1,2-b]quinolin-9-yl 4-(7-((4-((8S,11R,13S,14S,17R)-17-acetoxy-17-acetyl-13-methyl-3-oxo-2,3,6,7,8,11,12,13,14,15,16,17-dodecahydro-1H-cyclopenta[a]phenanthren-11-yl)phenyl)(methyl)amino)heptyl)piperazine-1-carboxylate] | < 0.01 | a (IC50 =< 10 nM) | 101 to 1000 | > 1000 | 0.01 to 0.1 | < 0.01 | 10 to 100 | 0.01 to 0.1 |
| CC[C@@]1(O)C(=O)OCc2c1cc1n(c2=O)Cc2cc3c(CN(C)C)c(OC(=O)N4CCN(CCCCCCCCN(C)c5ccc([C@H]6C[C@@]7(C)[C@@H](CC[C@]7(OC(C)=O)C(C)=O)[C@@H]7CCC8=CC(=O)CCC8=C76)cc5)CC4)ccc3nc2-1 [Compound 7, (S)-10-((Dimethylamino)methyl)-4-ethyl-4-hydroxy-3,14-dioxo-3,4,12,14-tetrahydro-1H-pyrano[3′,4′:6,7]indolizino[1,2-b]quinolin-9-yl 4-(8-((4-((8S,11R,13S,14S,17R)-17-acetoxy-17-acetyl-13-methyl-3-oxo-2,3,6,7,8,11,12,13,14,15,16,17-dodecahydro-1H-cyclopenta[a]phenanthren-11-yl)phenyl)(methyl)amino)octyl)piperazine-1-carboxylate] | < 0.01 | a (IC50 =< 10 nM) | 101 to 1000 | > 1000 | 0.01 to 0.1 | < 0.01 | 101 to 1000 | 0.01 to 0.1 |
